Columns and labels:
[1] = Synergy with cisplatin, experiments not described
[2] = test system: MDA-MB-231 cells; test: Caspase-3/7 activity assay (apoptosis); format: cell-based, human; details: 20 h
Description: FIG. 18. […] Multidrug-resistant MDA-MB-231 breast carcinoma cells were treated with increasing doses of mdivi-1 alone, a series of anticancer drugs alone, or the combination of increasing doses of anticancer drugs with 20 μM mdivi-1 for 20 h. Apoptosis was determined by measuring the activity of caspase-3/7. The drugs tested were platinum agent, cisplatin; antifolate agent, methotrexate; topoisomerase II inhibitor, etoposide; cytidine analog, gemcitabine; pyrimidine analog, 5-FU; alkylating agents, cyclophosphamide, MMS and MNNG; DNA crosslinking agent, MMC; DNA intercalating agent, doxorubicin; and antimitotic drug, paclitaxel.
FIG. 21A-F. Mdivi-1 enhances cisplatin sensitivity through Drp1-independent mechanisms. (A) Confirmation of the depletion of Drp1 in Drp1 knockout SV40-transformed MEF cells by western blot. (B) Drp1 wild-type (Drp1+/+) and knockout (Drp1−/−) MEF cells were treated as indicated for 20 h, and the number of apoptotic cells was determined by antibody recognizing cleaved caspase-3. […] (C) Drp1 wild-type and knockout MEF cells were treated with mdivi-1 for 24 h, and the cell number were determined by CyQuant assay. (D) OCR was measured after 1 h treatment of Drp1 wild-type and knockout MEF cells with DMSO or mdivi-1. (E) The combination effect of cisplatin with four analogs of mdivi-1. […]

[3] = test system: MDA-MB-231 cells; test: DNA content flow cytometry (propidium iodide): G2/M arrest and aneuploidy; format: cell-based, human; details: 5 μg/ml oligomycin, 5 μM FCCP or 10 μg/ml antimycin A, 24 h
[4] = test system: Drp1; details: as said in Cassidy-Stone et al., Dev Cell 14:193-204; cited from earlier work

O=C(N/N=C/c1ccc(O)c(O)c1)c1cc2ccccc2cc1O [Dynasore]
synergistic effect with cisplatin [1]: have not demonstrated a synergistic effect

C[C@]1(c2nc3c(C(N)=O)cccc3[nH]2)CCCN1 [ABT-888]
apoptosis, alone and in combination with cisplatin ([2]; series doses): resistant

antimycin A
G2/M cell cycle arrest and aneuploidy [3]: did not induce G2/M cell cycle arrest and aneuploidy

N#CC(C#N)=NNc1ccc(OC(F)(F)F)cc1 [FCCP]
G2/M cell cycle arrest and aneuploidy [3]: did not induce G2/M cell cycle arrest and aneuploidy

CC[C@H]1/C=C/C=C/C[C@@H](C)[C@H](O)[C@@](C)(O)C(=O)[C@@H](C)[C@H](O)[C@@H](C)C(=O)[C@@H](C)[C@H](O)[C@@H](C)/C=C/C(=O)O[C@@H]2[C@H](C)[C@H](CC1)O[C@]1(CC[C@H](C)[C@H](C[C@@H](C)O)O1)[C@H]2C [oligomycin]
G2/M cell cycle arrest and aneuploidy [3]: did not induce G2/M cell cycle arrest and aneuploidy

COc1cc(-n2c(SC)nc3ccccc3c2=O)c(Cl)cc1Cl [compound F]
combination effect with cisplatin in enhancing apoptosis ([2]; 20 μM of agents alone or in combination with cisplatin): abolished the synergism with cisplatin | efficacy in inhibiting Drp1 relative to mdivi-1 [4]: poor efficacy

From patent publication US9492450B2, “Inhibition of dynamin related protein 1 to promote cell death” (University of Pittsburgh—of the Commonwealth System of …, priority 2011, dated 2016)
